Results taken from patent publication US20030166687A1, “ALPHA-HYDROXY,-AMINO AND -FLUORO DERIVATIVES OF BETA-SULPHONYL HYDROXAMIC ACIDS AS MATRIX METALLOPROTEINASES INHIBITORS” (priority 2000, published 2003).

Each compound was assayed against gelatinase (assay: MMP particle concentration fluorescence assay, gelatinase). Settings: in vitro; 15 min preincubation, 1-3 hours with substrate at room temperature, pH 7.5.
Format: biochemical
Experimental: Inhibitory activity is evaluated in one or more of the MMP enzymes (stromelysin, gelatinase, and collagenase) in vitro using particle concentration fluorescence assay. An inhibitor binds to MMP enzymes which prevents the degradation of a substrate by stromelysin, gelatinase, or collagenase. The substrate has attached to it a fluorescein and a biotin moiety. The intact substrate then binds to an avidin-coated particle via the biotin moiety. Once the particle is washed and dried, a fluorescent signal is generated since the fluorescent group is attached to the particle. Without an inhibitor present, the substrate is degraded by MMP enzymes and the fluorescein group is removed, therefore, no fluorescent signal can be detected. Testing compounds are dissolved in DMSO to the desired concentration, then the solutions are diluted to 1:5 with MMP buffer (50 mM Tris-HCl, pH 7.5; 150 mM NaCl; 0.02% NaN3). Serial two-fold dilutions of each compound are prepared. A concentrated, activated enzyme solution is transferred into each plate of the testing compounds, and the mixture is incubated at room temperature for 15 minutes. Thawed MMP substrate is then added into all plates, and the plates are incubated in the dark for 1-3 hours at room temperature. At this point, the substrate mixture is mixed with 0.1% avidin-coated polystyrene particles. After 15 minutes, the fluorescence values are measured following filtration and washing of the beads. Ki values are then calculated.

Ki | Compound
1.9 nM | COc1ccc(S(=O)(=O)CC(O)(CS(=O)(=O)c2ccc(-c3ccccc3)cc2)C(=O)NO)cc1 (racemic) [Example 1, N-hydroxy-2-hydroxy-2-[(4-methoxybenzenesulfonyl)methyl]-3-(4-phenylbenzenesulfonyl)-propionamide]
8.5 nM | COc1ccc(S(=O)(=O)CC(O)(CS(=O)(=O)c2ccc(-c3ccccc3)cc2)C(=O)NO)cc1 (single isomer, unassigned) [1, Enantiomer A]
0.34 nM | COc1ccc(S(=O)(=O)CC(O)(CS(=O)(=O)c2ccc(-c3ccccc3)cc2)C(=O)NO)cc1 (single isomer, unassigned) [1, Enantiomer B]
31 nM | COc1ccc(S(=O)(=O)CC(O)(CS(=O)(=O)c2ccc(F)cc2)C(=O)NO)cc1 (stereo not drawn) [Example 2, N-hydroxy-2-hydroxy-2-[(4-methoxybenzenesulfonyl)methyl]-3-(4-fluorobenzenesulfonyl)-propionamide]
7.5 nM | COc1ccc(S(=O)(=O)CC(O)(CS(=O)(=O)c2ccc(OC)cc2)C(=O)NO)cc1 [Example 4, N-hydroxy-2-hydroxy-2-[(4-methoxybenzenesulfonyl)methyl]-3-(4-methoxybenzenesulfonyl)-propionamide]

The remaining lines, values behind:

Compound | Ki
CCCCc1ccc(S(=O)(=O)CC(O)(CS(=O)(=O)c2ccc(OC)cc2)C(=O)NO)cc1 (stereo not drawn) [Example 3, N-hydroxy-2-hydroxy-2-[(4-methoxybenzenesulfonyl)methyl]-3-(4-n-butylbenzenesulfonyl)-propionamide] | 13 nM
COc1ccc(S(=O)(=O)CC(O)(CNC(=O)c2ccccc2)C(=O)NO)cc1 (stereo not drawn) [Example 5, N-hydroxy-2-hydroxy-2-[(4-methoxybenzenesulfonyl)methyl]-3-(N-benzenecarbonylamino)-propionamide] | 23 nM
COc1ccc(S(=O)(=O)CC(O)(CNC(=O)C2CCCC2)C(=O)NO)cc1 (stereo not drawn) [Example 6, N-hydroxy-2-hydroxy-2-[(4-methoxybenzenesulfonyl)methyl]-3-[N-(cyclopentylcarbonyl)amino]-propionamide] | 70 nM
COc1ccc(C(=O)NCC(O)(CS(=O)(=O)c2ccc(OC)cc2)C(=O)NO)cc1 (stereo not drawn) [Example 7, N-hydroxy-2-hydroxy-2-[(4-methoxybenzenesulfonyl)methyl]-3-(N-(4-methoxybenzenecarbonyl)amino)-propionamide] | 17 nM
